pIC50: −log10 of the molar value. Like-named read-outs stand apart in the source and are kept apart here.
Legend:
[1] = biological target: rat recombinant 11β-HSD1 (Rattus norvegicus (Rat), UniProt P16232); assay: Measurement test for rat 11β-HSD1 inhibitory activity (HTRF cortisol detection); type: biochemical; conditions: rat recombinant 11β-HSD1, 200 nM cortisone, 40 μM NADPH, pH 6.6, room temperature 1 hour
Method: The procedure for measuring the 11β-HSD1-inhibitory activity is as follows. The enzyme reaction and the measurement were carried out using a 384-well plate. The enzyme was prepared in accordance with Journal of Biological Chemistry, 2001, Vol. 276, p. 21343-21350. The reaction was carried out by adding a test compound at various concentrations to a reaction liquid consisting of a 5 mM phosphate buffer (pH 6.6), 200 nM cortisone, 40 μM reduced nicotinamide adenine dinucleotide phosphate (NADPH), and rat recombinant 11β-HSD1, followed by incubating at room temperature for one hour (10 μl/well). The test compound was prepared by dissolving in dimethyl sulfoxide (DMSO) such that a DMSO concentration reached 1% in the reaction liquid. After the enzyme reaction was completed, the enzyme inhibitory action was measured by detecting cortisol using a homogeneous time-resolved fluorescence (HTRF) method. Each of a d2-labeled cortisol containing 400 μM carbenoxolone and a cryptate-labeled cortisol antibody (CIS Bio International Co., Ltd.) was added at 5 μl/well, followed by incubating at room temperature for 2 hours, and then the fluorescence intensity was measured using a fluorophotometer (trade name: ARVO HTS 1420, Perkin Elmer/Wallac), and the enzyme inhibitory activity was calculated from the fluorescence intensity ratio of two wavelengths (665 nm/620 nm).
The measurement results were calculated by averaging the values of 3 wells of the same condition. The ratio when DMSO was added instead of the test compound was taken as 0% and the ratio when 11β-HSD1 was not added was taken as 100%, thereby calculating the 50% inhibition concentration of the test compound as IC50 of the compound inhibitory activity.

[2] = system: spinal nerve ligation model; assay: Test of spinal nerve ligation model (von Frey hair test); type: in vivo, rat; conditions: read-out: Improvement rate % (dose)
Method: The test was carried out in accordance with Pain, 1992, Vol. 50, p. 355-363. The lumbar skin and muscle of a rat (SD, male, 5- to 6-week old) were incised under pentobarbital anesthesia and the transverse processes of lumbar L6 were removed to expose lumbar nerves. The L5 and L6 spinal nerves were ligated with silk thread and then the wound was sutured. The treatment was performed on the left side. However, in a case of a pseudo-operation, the wound was sutured without carrying out the nerve ligation.
Drug efficacy evaluation was carried out by a von Frey hair test 7 to 20 days after the operation. The withdrawal response threshold was calculated in accordance with Journal of Neuroscience Methods, 1994, Vol. 53, p. 55-63. The plantar of hindlimb was stimulated using 8 kinds of von Frey filaments (0.41 to 15.14 g), and 50% withdrawal response thresholds were determined by an up-and-down method. The test was initiated from 2.04 g of the filament, and a case where the withdrawal response of the limb was observed was taken as presence of the response.
On the previous day of the drug efficacy evaluation, the animals showing reduction in the thresholds according to a von Frey hair test were preliminarily selected and grouped such that the difference in the average values of the thresholds between the respective groups was reduced.
The test substance was suspended in a 0.5% methylcellulose solution and administered orally 2 hours before the drug efficacy evaluation. The evaluation of the test substance was carried out by determining the improvement rate of the group administered with the test substance when the threshold of the limb on the treatment side in the pseudo-operation animal group was taken as 100% and the threshold of the limb on the treatment side in an operated animal group administered with a solvent was taken as 0%.

[3] = system: fibromyalgia model induced by repeated administration of reserpine; assay: Test of fibromyalgia model induced by repeated administration of reserpine (muscle pressure pain threshold); type: in vivo; conditions: 1 mg/kg oral, maximum among 30, 60 and 120 min after administration, normal rat = 100%, reserpine + solvent = 0%, SD rat
Method: The test was carried out in accordance with Pain, 2009, Vol. 146, p. 26-33. Rats (SD, male, 7 weeks old) were used.
The threshold measurement for the muscle pressure pain was carried out according to the method of Schafers et al. (Pain, 2003, Vol. 104, p. 579-588). The pressure stimulus gradually increasing up to 250 g was applied to the gastrocnemius muscle of the right hindlimb of the rat. […] The measurements were carried out in triplicate for each point of time and the average thereof was taken as a measured value.
A solvent (0.5% acetic acid/water) or reserpine at 1 mg/kg was subcutaneously administered on a dorsal subcutaneous part for 3 days once per day. The administration volume of the solvent or reserpine was taken as 1 mL per kg of a body weight of an animal. The muscle pressure pain thresholds of the respective rats were measured at 6 days after the initiation of the administration of the solvent or reserpine, and grouped such that the difference in the average values of the thresholds between the respective groups was reduced.
The drug efficacy evaluation was carried out the next day. The test substance was suspended in a 0.5% methylcellulose solution and the muscle pressure pain thresholds were measured 30, 60, and 120 minutes after oral administration. For the normal rats, drug administration was not carried out, and only the measurement of the muscle pressure pain thresholds was carried out. […] The evaluation of the test substance was carried out by determining the maximal improvement rate of the group administered with the test substance among at time points of 30, 60, and 120 minutes after the administration when the muscle pressure pain threshold of the normal rat is taken as 100% and the muscle pressure pain threshold of the rat treated with reserpine while administered with the solvent is taken as 0%.

[4] = 0.3 mg/kg oral, 2 hours before evaluation, 50% withdrawal response threshold, pseudo-operation group = 100%, operated solvent group = 0%, SD rat

rat recombinant 11β-HSD1, sequence (P16232 whole entry): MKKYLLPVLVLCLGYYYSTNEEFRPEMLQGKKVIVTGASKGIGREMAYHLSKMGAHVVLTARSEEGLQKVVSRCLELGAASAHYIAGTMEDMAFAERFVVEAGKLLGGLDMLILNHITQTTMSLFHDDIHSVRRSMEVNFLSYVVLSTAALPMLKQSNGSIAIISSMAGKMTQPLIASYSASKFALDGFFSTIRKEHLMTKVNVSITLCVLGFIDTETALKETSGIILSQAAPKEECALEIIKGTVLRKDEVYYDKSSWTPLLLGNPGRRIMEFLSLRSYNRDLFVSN

Compound | pIC50 [1] | inhibition in vivo at 0.3 mg/kg [2, 4] | Maximum improvement rate % (dose) [3] | inhibition in vivo at 0.3 mg/kg ([2]; Rattus norvegicus, po, 2 h)
Cn1c(-c2ccc(F)cc2Br)nnc1C(C)(C)Oc1c(F)cc(F)cc1F [Compound 1] | 7.46 | 71% | – | –
CC(C)(Oc1ccc(F)cc1F)c1nnc(-c2ccc(C(N)=O)cc2F)n1C1CC1 [Compound 11] | 7.19 | 82% | 83 (1 mg/kg) % | –
CC(C)n1c(-c2ccc(C(N)=O)cc2F)nnc1C(C)(C)Oc1c(F)cc(F)cc1F [Compound 15] | – | – | 45 (1 mg/kg) % | 86%
Cn1c(-c2ccccc2Cl)nnc1C(C)(C)Oc1c(F)cc(F)cc1F [Compound 3] | 7.62 | 62% | – | –
Cn1c(-c2ccc(F)cc2Cl)nnc1C(C)(C)Oc1c(F)cc(F)cc1F [Compound 2] | – | – | 30 (1 mg/kg) % | 88%
CC(C)n1c(-c2ccc(C(N)=O)cc2)nnc1C(C)(C)Oc1c(F)cc(F)cc1F [Compound 9] | 7.59 | 78% | – | –
Cn1c(-c2ccc(F)cc2Cl)nnc1C(C)(C)Oc1c(F)cc(Cl)cc1F [Compound 5] | 6.58 | 65% | – | –
Cn1c(-c2ccc(C(N)=O)cc2F)nnc1C(C)(C)Oc1c(F)cc(Cl)cc1F [Compound 10] | – | 81% | 65 (1 mg/kg) % | –
Cl.Cn1c(-c2ccccc2Cl)nnc1C(C)(C)Oc1c(F)cc(Cl)cc1F [Compound 4] | 7.49 | 85% | 82 (1 mg/kg) % | –
Cn1c(-c2ccccc2F)nnc1C(C)(C)Oc1c(F)cc(F)cc1F [Compound 6] | 6.49 | 52% | – | –
Cn1c(-c2c[nH]nc2C(F)(F)F)nnc1C(C)(C)Oc1c(F)cc(F)cc1F [Compound 7] | 7.49 | 73% | – | –
CC(C)(Oc1ccc(F)cc1F)c1nnc(-c2ccc(C(N)=O)cc2Cl)n1C1CC1 [Compound 14] | 7.80 | 73% | – | –
CCn1c(-c2ccc(C(N)=O)cc2)nnc1C(C)(C)Oc1c(F)cc(Cl)cc1F [Compound 8] | – | – | 41 (1 mg/kg) % | 87%
CC(C)n1c(-c2ccc(C(N)=O)cc2)nnc1C(C)(C)Oc1c(F)cc(Cl)cc1F [Compound 13] | 7.17 | 53% | – | –
Cn1c(-c2ccc(C(N)=O)cc2F)nnc1C(C)(C)Oc1c(F)cc(F)cc1F [Compound 12] | 6.74 | 54% | – | –

Source: patent publication US9765040B2, “Therapeutic agent for pain” (Astellas Pharma Inc., priority 2010, dated 2017)
